Results taken from patent publication US4208410A, “Dibenzo[d,g][1,3,6]dioxazocine derivatives” (priority 1977, dated 1980).
Where a name gives a salt, the structure may show the parent alone. Read-outs that look alike come from different tables or passages of the source.

Tests used:
[1] = Acute toxicity in white mice, peroral; settings: mouse, in vivo, po, white mice CFLP
Description: Acute toxicity of the compounds was tested on white mice from the strain CFLP. Administration was effected perorally.

mice [2] = assay: Local anaesthetic activity (Acta Chirurg. Scand. 116, 351 (1958)); type: in vivo; settings: for EC50 (concentration at which the local anaesthetic activity amounted to 50%): 0.25% and 0.5% solutions tested; for LD50/EC50: local anaesthetic activity
Description: In order to observe the local anaesthetic activity of the instant compounds 0.25% and 0.5% solution thereof were tested following the method described in Acta Chirurg. Scand. 116, 351 (1958). The test animals were mice.

mice [3] = assay: Duration of the local anaesthetic effect; type: in vivo
[4] = test system: tremor induced by tremorine; assay: Inhibition of tremor induced by tremorine (Science, 124, 79/1956/); type: in vivo, white mice; settings: for ED50: Mus musculus, read-out: ED50, inhibition of tremor by tremorine
Description: (§1) This activity was tested on white mice, on the basis of the inhibition of tremor induced by tremorine [1,1'-(2-butynylene)-dipyrrolidine] and of nicotine lethality. For comparison Trihexyphenidyl [α-cyclohexyl-α-phenyl-1-piperidinepropanol hydrochloride] and L-DOPA [L-(-)-β-(3,4-dihydroxyphenyl)alanine] are used.

nicotine lethality = assay: animal or person; type: in vivo, white mice; settings: po; for LD50/ED50, inhibition of nicotine lethality: mouse, in vivo; for ED50: Mus musculus, read-out: ED50, inhibition of nicotine lethality
Description: as §1

Row | SMILES | LD50 [1] | EC50 (concentration at which the local anaesthetic activity amounted to 50%) (mice [2]) | LD50/EC50 (mice [2]) | Duration of the effect (mice [3]; 0.25% solution) | Duration of the effect (mice [3]; 0.5% solution) | ED50 ([4]; po, white mice) | LD50/ED50, inhibition of tremor by tremorine ([4]; mouse, in vivo, po) | LD50/ED50, inhibition of nicotine lethality (nicotine lethality) | ED50 (nicotine lethality) | ED50 ([4]; po) | LD50/ED50, inhibition of tremor by tremorine ([4]; p.o., white mice)
1 | CN1CCN(CCN2c3ccccc3OCOc3ccc(Cl)cc32)CC1 [Example 7, 2-Chloro-12H-12-[2-(N-methylpiperazino)-ethyl]dibenzo[d,g][1,3,6]dioxazocine dihydrochloride] | 600 mg/kg | 0.13% | 4600 | 53 min | 260 min | 30 mg/kg | 20 | – | – | – | –
2 | CC(CN(C)C)CN1c2ccccc2OCOc2ccc(Cl)cc21 (stereo not shown) [Example 6, 2-Chloro-12H-12-(2-methyl-3-dimethylaminopropyl)dibenzo[d,g][1,3,6]dioxazocine hydrochloride] | 270 mg/kg | 0.12% | 2250 | 67 min | 161 min | 11 mg/kg | 25 | 25 | – | – | –
3 | Clc1ccc2c(c1)N(CCN1CCOCC1)c1ccccc1OCO2 [Example 8, 2-Chloro-12H-12-(2-morpholinoethyl)-dibenzo[d,g][1,3,6]dioxazocine maleinate] | > 2000 mg/kg | – | – | – | – | – | – | 14 | 140 mg/kg | – | –
4 | N[C@@H](Cc1ccc(O)c(O)c1)C(=O)O [L-DOPA, L-(-)-β-(3,4-dihydroxyphenyl)alanine, reference compound] | – | – | – | – | – | > 500 mg/kg | < 5 | < 10 | 500 mg/kg | – | –
5 | Cl.OC(CCN1CCCCC1)(c1ccccc1)C1CCCCC1 (stereo not drawn) [Trihexyphenidyl, α-cyclohexyl-α-phenyl-1-piperidinepropanol hydrochloride, reference compound] | – | – | – | – | – | – | – | – | 80 mg/kg | 15 mg/kg | 24
6 | CN(C)CCCN1c2ccccc2OCOc2ccc(Cl)cc21 [Example 3, 2-Chloro-12H-12-(3-dimethylaminopropyl)-dibenzo[d,g][1,3,6]dioxazocine maleinate] | 760 mg/kg | 0.15% | 5060 | 71 min | 103 min | 8 mg/kg | 95 | 54 | 14 mg/kg | – | –
7 | CCN(CC)CC(=O)Nc1c(C)cccc1C [Lidocaine, 2-diethylamino-2',6'-acetoxy-xylidide, reference compound] | – | 0.18% | – | 25 min | 37 min | – | – | – | – | – | –
8 | Clc1ccc2c(c1)N(CCN1CCCCC1)c1ccccc1OCO2 [Example 5, 2-Chloro-12H-12-(2-piperidinoethyl)-dibenzo[d,g][1,3,6]dioxazocine hydrochloride] | 700 mg/kg | 0.32% | 2180 | 34 min | 65 min | 18 mg/kg | 38.9 | 12 | 60 mg/kg | – | –
9 | Clc1ccc2c(c1)Nc1ccccc1OCO2 [Example 1, 2-Chloro-12H-dibenzo[d,g][1,3,6]dioxazocine] | > 2000 mg/kg | – | – | – | – | – | – | – | – | – | –
10 | CN(C)CCCN1c2cc(Cl)ccc2OCOc2ccc(Cl)cc21 [Example 15, 2,10-Dichloro-12H-12-(3-dimethylaminopropyl)-dibenzo[d,g][1,3,6]dioxazocinemaleinate] | 320 mg/kg | – | – | – | – | 4.3 mg/kg | 74.4 | 35.6 | 9 mg/kg | – | –
